Measurements as given in patent publication US12642812B2, “Nicotinamide mononucleotide derivatives and use thereof in the treatment and prevention of an antineoplastic-induced toxicity” (NUVAMID SA, priority 2020, dated 2026).

What was measured:
Assay type in all cases: in vivo, mice
[1] = system: doxorubicin-induced cardiotoxicity; assay: Survival rate in doxorubicin-induced cardiotoxicity model; conditions: for survival rate (% of survival): DOX 20 mg/kg i.p. mice, compound 180 mg/kg i.p. once daily from 5 days before DOX to D5, 5 days after DOX
Experimental: The aim of the present study was to evaluate, the effects of i.p. administration of compounds 001, 010 and 011 at 180 mg/kg in the progression of a cardiotoxicity induced by doxorubicin.
(§1) Cardiotoxicity was induced by a single intraperitoneal injection of doxorubicin (DOX) at 20 mg/kg. Doxorubicin was prepared at 2 mg/mL and volume of administration was 10 mL/Kg.
Mortality rate was followed-up all along the experimental phase.
(§2) • Group 1: Vehicle (i.p.) • Group 2: Doxorubicin (20 mg/kg) • Group 3: Doxorubicin (20 mg/kg)+compound 001 180 mg/kg • Group 4: Doxorubicin (20 mg/kg)+compound 010 180 mg/kg • Group 5: Doxorubicin (20 mg/kg)+compound 011 180 mg/kg Group Repartition:
At D0, mice received DOX (20 mg/kg) by intraperitoneal route.
(§3) The treatment with compounds 001, 010 and 011 was initiated from 5 days before DOX injection once per day from […] to D0.
(§4) Mice were i.p treated with compounds 001, 010 and 01130 min before DOX injection.
(§5) Mice were i.p treated with compounds 001,010 and 011 for the duration of the experiment (D0 to D5) once per day. Last injection occurred 24 hours before sacrifice.
The survival rate was recorded every day until the end of the experiment (D5).

[2] = system: doxorubicin-induced cardiotoxicity; assay: Body weight in doxorubicin-induced cardiotoxicity model; conditions: for body weight loss observed after doxorubicin administration (effect of treatment): DOX 20 mg/kg i.p. mice, compound 180 mg/kg i.p. daily, D5 vs before injection, vs DOX vehicle
Experimental: The treatment with compounds 001, 010 and 011 was initiated from 5 days before DOX injection once per day from D5 to D0.
The bodyweight was assessed at inclusion and at D5.

[3] = system: doxorubicin-induced cardiotoxicity; assay: Assessment of cardiac function by echocardiography in doxorubicin-induced cardiotoxicity model; conditions: 5 days after DOX; for heart rate (effect of treatment, in words): vs DOX vehicle; for end-systolic LV volume (effect of treatment): vs doxorubicin vehicle group; for anterior and posterior wall thickness in systole (effect of treatment): compound 180 mg/kg
Experimental: Cardiotoxicity was induced by a single intraperitoneal injection of doxorubicin (DOX) at 20 mg/kg. Doxorubicin was prepared at 2 mg/mL and volume of administration was 10 mL/Kg. • Group 1: Vehicle (i.p.) • Group 2: […] Doxorubicin (20 mg/kg)+compound 001 180 mg/kg • Group 4: Doxorubicin (20 mg/kg)+compound 010 180 mg/kg • Group 5: Doxorubicin (20 mg/kg)+compound 011 180 mg/kg Group Repartition: […] Mice were i.p treated with compounds 001, 010 and 01130 min before DOX injection. Mice were i.p treated with compounds 001,010 and 011 for the duration of the experiment (D0 to D5) once per day. Last injection occurred 24 hours before sacrifice. Echocardiography (ECG) was performed 5 days after doxorubicin injection in anesthetized (isoflurane 1.5-2%) animals with non-invasive two-dimensional echocardiography (VF16-5 probe, Siemens, Acuson NX3 Elite). After removing hairs on the chest, numeric images of the heart will be obtained in both parasternal long-axis and short axis views. The following cardiac function were assessed during ECG: • Left ventricle (LV) end-systolic and end-diastolic inner diameter, • LV end-systolic and end-diastolic volume, • Fractional shortening; • Ejection fraction; • Heart Rate; and • Anterior and posterior wall thickness in Diastole and in systole.

[4] = system: doxorubicin-induced cardiotoxicity; assay: Heart weight in doxorubicin-induced cardiotoxicity model; conditions: 5 days after DOX; for heart weight (effect of treatment): DOX 20 mg/kg mice, compound 180 mg/kg, vs DOX vehicle mice
Experimental: as §1, §2, §3, §4, §5
At D5, heart and tibia were collected.

[5] = system: doxorubicin-induced cardiotoxicity; assay: Plasmatic LDH biomarker in doxorubicin-induced cardiotoxicity model; conditions: plasma, 5 days after DOX
Experimental: as §1, §2, §3, §4, §5
Retro-orbital blood collection was performed at the inclusion and at 1 and 5 days after the induction with DOX to assess biomarkers (especially LDH).
DOX mice were treated with compounds 001,010 and 011 (180 mg/kg) or vehicle. Plasmatic LDH (lactate dehydrogenase) was measured 5 days after doxorubicin injection.

[6] = DOX 20 mg/kg mice, compound 180 mg/kg i.p. daily
[7] = doxorubicin 20 mg/kg + vehicle vs control group
[8] = doxorubicin-treated mice (20 mg/kg, vehicle) vs control

Row | SMILES | survival rate (% of survival) [1] [%] | body weight loss observed after doxorubicin administration (effect of treatment) [2] | ejection fraction [3, 6] [%] | fractional shortening [3, 6] | heart rate (effect of treatment, in words) [3, 6] | end-systolic LV volume (effect of treatment) [3, 6] | anterior and posterior wall thickness in systole (effect of treatment) ([3]; DOX 20 mg/kg mice) | heart weight (effect of treatment) [4] | further results
1 | NC(=O)c1ccc[n+]([C@@H]2O[C@H](COP(=O)([O-])OP(=O)([O-])OC[C@H]3O[C@H]([n+]4cccc(C(N)=O)c4)[C@H](O)[C@@H]3O)[C@@H](O)[C@H]2O)c1 [Compound 010] | 98 | significantly decreased | 60.0±0.6 | around 38% | increased | reduced | non-significant increases | tended to increase | heart rate [3, 6]: 470.1±18.8 bpm
2 | COc1cccc2c1C(=O)c1c(O)c3c(c(O)c1C2=O)C[C@@](O)(C(=O)CO)C[C@@H]3O[C@H]1C[C@H](N)[C@H](O)[C@H](C)O1 [doxorubicin, reference compound] |  |  |  |  |  |  |  |  | mice died before the end of experimental protocol ([1]; doxorubicin 20 mg/kg i.p. mice treated with vehicle, up to D5): ~50%; decrease in body weight (body weight gain) ([2]; doxorubicin 20 mg/kg i.p., surviving vehicle-treated mice, day of sacrifice minus before injection): -4.2 ± 0.5 g; end-diastolic LV volume [3, 7]: without significative difference; end-systolic LV volume [3, 7]: significant increase; anterior and posterior wall thickness in systole ([3]; doxorubicin 20 mg/kg + vehicle vs control): significantly decreased; heart rate ([3]; doxorubicin 20 mg/kg + vehicle): 365.1±23.9 bpm; ejection fraction ([3]; doxorubicin 20 mg/kg vehicle group): 38.9±1.3%; LV internal diameter in diastole [3, 8]: without significative difference; LV internal diameter in systole [3, 8]: significantly increased; fractional shortening ([3]; doxorubicin-treated mice (20 mg/kg, vehicle)): 33.5±0.4%; heart weight ([4]; doxorubicin 20 mg/kg + vehicle): 102.3 ± 4.6 mg; increase in LDH release compared to control group ([5]; doxorubicin 20 mg/kg + vehicle): more than 3 fold
3 | NC(=O)c1ccc[n+]([C@@H]2O[C@H](COP(=O)([O-])O)[C@@H](O)[C@H]2O)c1 [Compound 001, nicotinamide mononucleotide] | 78 | significantly decreased | 56.9±0.6 | around 38% | increased | reduced | non-significant increases |  | decrease of LDH release / reduction in LDH levels ([5]; DOX 20 mg/kg mice, compound 180 mg/kg, vs DOX vehicle): more than 35%
4 | NC(=O)c1ccc[n+]([C@H]2O[C@H](COP(=O)([O-])OP(=O)([O-])OC[C@H]3O[C@H]([n+]4cccc(C(N)=O)c4)[C@H](O)[C@@H]3O)[C@@H](O)[C@H]2O)c1 [Compound 011] | 100 | significantly decreased | 58.2±0.5 | around 38% | increased | reduced | non-significant increases | tended to increase | 
